Our source for the activity coefficient values is the NIST ThermoML archive (doi:10.1021/je800754w).

Numbers after ± are expanded uncertainties.

The nature of the data set: activity coefficient (dimensionless); of the first substance listed, at infinite dilution; xn = mol fraction of the nth substance listed. The settings on record: Liquid, Chromatography, x1 = 0.

For the compound `CCCO` [propan-1-ol] + CCCCCCCCCCCCCC[P+](CCCCCC)(CCCCCC)CCCCCC.O=S(=O)([N-]S(=O)(=O)C(F)(F)F)C(F)(F)F, the activity coefficient turned out to be 1.53 ± 0.1 (302.45 K), 1.21 ± 0.08 (322.35 K) and 1 ± 0.06 (342.45 K).

On to `c1ccncc1` [pyridine] + CCCCCCCCCCCCCC[P+](CCCCCC)(CCCCCC)CCCCCC.O=S(=O)([N-]S(=O)(=O)C(F)(F)F)C(F)(F)F, for which the activity coefficient reads like this: (302.45 K) 0.52 ± 0.04; (322.35 K) 0.41 ± 0.03; (342.45 K) 0.34 ± 0.03.

With `C#CCCCCC` [1-heptyne] + CCCCCCCCCCCCCC[P+](CCCCCC)(CCCCCC)CCCCCC.O=S(=O)([N-]S(=O)(=O)C(F)(F)F)C(F)(F)F, the activity coefficient (302.45 K) stood at 0.77 ± 0.05, the activity coefficient (322.35 K) was 0.78 ± 0.05 and the activity coefficient (342.45 K) turned out to be 0.8 ± 0.05.

As for `C=O` [methanal] + CCCCCCCCCCCCCC[P+](CCCCCC)(CCCCCC)CCCCCC.O=S(=O)([N-]S(=O)(=O)C(F)(F)F)C(F)(F)F, the activity coefficient is, setting by setting: (302.45 K) 0.06; (322.35 K) 0.06; (342.45 K) 0.07 ± 0.03.
